Reference: patent US10259810B2, “N-sulfonylated pyrazolo[3,4-b]pyridin-6-carboxamides and method of use” (AbbVie S.à.r.l., priority 2015, dated 2019)

Assays:
[1] = target: T1, ΔF508-CFTR (Homo sapiens, UniProt P13569, DEL508-508); test: CFTR cell surface levels using HRP-tagged ΔF508-CFTR expressing CFBE cells, in the presence of a co-corrector; assay type: cell-based; details: HRP-tagged ΔF508-CFTR CFBE cells, in the presence of 3 μM co-corrector; for EC50: read-out: EC50
T1 construct: host or cells: CFBE41o-, doxycycline-inducible
In short: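 Chemiluminescent read-out of surface HRP (15 min, dark) after PBS washes. Activity is normalized as 100×(sample−DMSO)/(3 μM co-corrector alone−DMSO).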

[2] = target: T1, ΔF508-CFTR; test: CFTR cell surface levels using HRP-tagged ΔF508-CFTR expressing CFBE cells, intrinsic corrector capacity; assay type: cell-based; set-up: % Activation: concentration or dose not given beside the values; details: HRP-tagged ΔF508-CFTR expressing CFBE41o- cells, compound alone (intrinsic corrector capacity), 20 hours at 33° C.; for EC50: read-out: EC50
In short: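 Surface ΔF508-CFTR was measured as HRP chemiluminescence from an extracellular-loop-4 tag, expressed as percent activity between DMSO and a […] corrector control.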

T1 sequence (P13569 with tags, fused parts or gaps DEL508-508): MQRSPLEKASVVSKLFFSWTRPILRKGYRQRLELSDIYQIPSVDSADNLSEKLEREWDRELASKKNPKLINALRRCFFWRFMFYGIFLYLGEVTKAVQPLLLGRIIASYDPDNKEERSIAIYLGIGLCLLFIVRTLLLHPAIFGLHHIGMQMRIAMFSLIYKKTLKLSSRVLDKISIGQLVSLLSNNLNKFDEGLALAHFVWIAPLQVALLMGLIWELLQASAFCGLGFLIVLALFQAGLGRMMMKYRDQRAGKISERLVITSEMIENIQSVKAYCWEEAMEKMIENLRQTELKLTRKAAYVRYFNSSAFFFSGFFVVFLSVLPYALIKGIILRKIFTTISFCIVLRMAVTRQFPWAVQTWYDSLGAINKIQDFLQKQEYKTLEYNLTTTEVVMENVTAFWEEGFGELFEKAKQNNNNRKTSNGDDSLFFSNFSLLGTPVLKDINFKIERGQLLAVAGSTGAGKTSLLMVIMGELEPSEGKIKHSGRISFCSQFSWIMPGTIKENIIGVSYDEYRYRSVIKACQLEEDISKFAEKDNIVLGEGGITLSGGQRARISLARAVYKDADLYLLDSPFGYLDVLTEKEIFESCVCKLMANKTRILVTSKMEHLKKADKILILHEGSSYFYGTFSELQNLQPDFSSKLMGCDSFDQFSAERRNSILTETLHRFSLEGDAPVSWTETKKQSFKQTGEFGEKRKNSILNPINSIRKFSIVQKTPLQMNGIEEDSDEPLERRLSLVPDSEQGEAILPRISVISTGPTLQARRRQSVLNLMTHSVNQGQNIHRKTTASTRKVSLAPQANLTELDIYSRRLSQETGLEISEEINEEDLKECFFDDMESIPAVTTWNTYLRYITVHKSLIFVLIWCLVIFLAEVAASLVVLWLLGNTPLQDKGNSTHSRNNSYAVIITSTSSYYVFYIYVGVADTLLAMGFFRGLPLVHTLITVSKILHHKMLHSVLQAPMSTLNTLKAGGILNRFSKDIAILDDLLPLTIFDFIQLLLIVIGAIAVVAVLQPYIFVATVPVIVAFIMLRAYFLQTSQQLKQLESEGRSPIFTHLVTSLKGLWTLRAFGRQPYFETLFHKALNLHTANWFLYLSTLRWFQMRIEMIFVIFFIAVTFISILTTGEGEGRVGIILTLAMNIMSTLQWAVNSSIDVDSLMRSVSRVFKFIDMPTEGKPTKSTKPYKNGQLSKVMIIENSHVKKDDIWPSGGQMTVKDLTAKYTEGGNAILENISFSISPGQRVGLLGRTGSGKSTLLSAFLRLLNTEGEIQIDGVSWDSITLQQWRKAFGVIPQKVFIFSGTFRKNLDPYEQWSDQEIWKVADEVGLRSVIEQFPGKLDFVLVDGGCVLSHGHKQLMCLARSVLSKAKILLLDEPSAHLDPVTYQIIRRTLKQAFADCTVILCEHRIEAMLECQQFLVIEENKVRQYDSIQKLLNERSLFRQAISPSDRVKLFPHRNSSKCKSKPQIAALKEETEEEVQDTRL

Row | SMILES | % Activation [1] | EC50 [1] | % Activation [2] | EC50 [2]
1 | CC(c1ccc(-c2cc(C(=O)NS(=O)(=O)N(C)C)nc3c2c(C2CCC2)nn3C2CCCCC2)cc1)N1CCOCC1 (centres unmarked) [Compound 543, 3-cyclobutyl-1-cyclohexyl-N-(dimethylsulfamoyl)-4-{4-[1-(morpholin-4-yl)ethyl]phenyl}-1H-pyrazolo[3,4-b]pyridine-6-carboxamide] | 336.1% | 0.139 µM | 115.7% | 0.238 µM
2 | CC(C)Oc1nn(C2CCCCC2)c2nc(C(=O)NS(C)(=O)=O)cc(-c3ccc(C(=O)N4CCC(N(C)C)CC4)cc3)c12 [Compound 544, 1-cyclohexyl-4-{4-[4-(dimethylamino)piperidine-1-carbonyl]phenyl}-N-(methanesulfonyl)-3-[(propan-2-yl)oxy]-1H-pyrazolo[3,4-b]pyridine-6-carboxamide] | 344.9% | 2 µM | 135.3% | 3.33 µM
3 | COCCS(=O)(=O)NC(=O)c1cc(-c2ccc(C(=O)N3CCC(N(C)C)CC3)cc2)c2c(OC(C)C)nn(C3CCCCC3)c2n1 [Compound 545, 1-cyclohexyl-4-{4-[4-(dimethylamino)piperidine-1-carbonyl]phenyl}-N-(2-methoxyethanesulfonyl)-3-[(propan-2-yl)oxy]-1H-pyrazolo[3,4-b]pyridine-6-carboxamide] | 318.7% | 1.91 µM | 112.7% | 3.33 µM
4 | COC1CCN(C2CCN(c3cc(C(=O)NS(C)(=O)=O)nc4c3c(C3CCC3)nn4-c3ccc(F)cc3)CC2)CC1 [Compound 548, 3-cyclobutyl-1-(4-fluorophenyl)-N-(methanesulfonyl)-4-(4-methoxy[1,4'-bipiperidin]-1'-yl)-1H-pyrazolo[3,4-b]pyridine-6-carboxamide] | 556.9% | 0.553 µM | 307.2% | 0.654 µM
5 | O=C(NS(=O)(=O)C1CC1)c1cc(N2CCC(N3CCN(C4CC4)CC3)CC2)c2c(C3CCC3)nn(-c3ccccc3)c2n1 [Compound 550, 3-cyclobutyl-N-(cyclopropanesulfonyl)-4-[4-(4-cyclopropylpiperazin-1-yl)piperidin-1-yl]-1-phenyl-1H-pyrazolo[3,4-b]pyridine-6-carboxamide] | 605.45% | 0.173 µM | 347% | 0.361 µM
6 | CC(C)N1CCN(C2CCN(c3cc(C(=O)NS(=O)(=O)N(C)C)nc4c3c(C3CCC3)nn4C3CCCCC3)CC2)CC1 [Compound 553, 3-cyclobutyl-1-cyclohexyl-N-(dimethylsulfamoyl)-4-{4-[4-(propan-2-yl)piperazin-1-yl]piperidin-1-yl}-1H-pyrazolo[3,4-b]pyridine-6-carboxamide] | 494.3% | 0.233 µM | 293% | 1.73 µM
7 | CCCN(C)S(=O)(=O)NC(=O)c1cc(N2CCC(N3CCN(C4CC4)CC3)CC2)c2c(C3CCC3)nn(-c3ccccc3)c2n1 [Compound 554, 3-cyclobutyl-4-[4-(4-cyclopropylpiperazin-1-yl)piperidin-1-yl]-N-[methyl(propyl)sulfamoyl]-1-phenyl-1H-pyrazolo[3,4-b]pyridine-6-carboxamide] | 481% | 0.0569 µM | 269.45% | 0.108 µM
8 | CS(=O)(=O)NC(=O)c1cc(N2CCC(N3CCN(C4CC4)CC3)CC2)c2c(C3CCC3)nn(-c3ccccc3)c2n1 [Compound 556, 3-cyclobutyl-4-[4-(4-cyclopropylpiperazin-1-yl)piperidin-1-yl]-N-(methanesulfonyl)-1-phenyl-1H-pyrazolo[3,4-b]pyridine-6-carboxamide] | 595.8% | 0.136 µM | 386% | 0.0647 µM
9 | CC1(S(=O)(=O)NC(=O)c2cc(N3CCC(N4CCN(C5CC5)CC4)CC3)c3c(C4CCC4)nn(-c4ccccc4)c3n2)CC1 [Compound 557, 3-cyclobutyl-4-[4-(4-cyclopropylpiperazin-1-yl)piperidin-1-yl]-N-(1-methylcyclopropane-1-sulfonyl)-1-phenyl-1H-pyrazolo[3,4-b]pyridine-6-carboxamide] | 474.4% | 0.116 µM | 248.5% | 0.252 µM
10 | CN(C)S(=O)(=O)NC(=O)c1cc(N2CCC(N3CCC(C(F)(F)F)C3)CC2)c2c(C3CCC3)nn(-c3ccc(F)cc3)c2n1 (centres unmarked) [Compound 560, 3-cyclobutyl-N-(dimethylsulfamoyl)-1-(4-fluorophenyl)-4-{4-[3-(trifluoromethyl)pyrrolidin-1-yl]piperidin-1-yl}-1H-pyrazolo[3,4-b]pyridine-6-carboxamide] | 544.45% | 0.0661 µM | 260.4% | 0.0963 µM
11 | CN(C)S(=O)(=O)NC(=O)c1cc(N2CCC(N3CCCC(F)C3)CC2)c2c(C3CCC3)nn(-c3ccc(F)cc3)c2n1 (centres unmarked) [Compound 563, 3-cyclobutyl-N-(dimethylsulfamoyl)-4-(3-fluoro[1,4'-bipiperidin]-1'-yl)-1-(4-fluorophenyl)-1H-pyrazolo[3,4-b]pyridine-6-carboxamide] | 542.9% | 0.111 µM | 298.9% | 0.198 µM
12 | CS(=O)(=O)NC(=O)c1cc(N2CCC(N3CCC(C(F)(F)F)C3)CC2)c2c(C3CCC3)nn(-c3ccc(F)cc3)c2n1 (centres unmarked) [Compound 564, 3-cyclobutyl-1-(4-fluorophenyl)-N-(methanesulfonyl)-4-{4-[3-(trifluoromethyl)pyrrolidin-1-yl]piperidin-1-yl}-1H-pyrazolo[3,4-b]pyridine-6-carboxamide] | 587.4% | 0.0408 µM | 361.35% | 0.118 µM
13 | CS(=O)(=O)NC(=O)c1cc(N2CCC(N3CCC(C#N)C3)CC2)c2c(C3CCC3)nn(-c3ccc(F)cc3)c2n1 (centres unmarked) [Compound 565, 4-[4-(3-cyanopyrrolidin-1-yl)piperidin-1-yl]-3-cyclobutyl-1-(4-fluorophenyl)-N-(methanesulfonyl)-1H-pyrazolo[3,4-b]pyridine-6-carboxamide] | 637.53% | 0.0699 µM | 373.15% | 0.182 µM
14 | CS(=O)(=O)NC(=O)c1cc(N2CCC(N3CCCC(C#N)C3)CC2)c2c(C3CCC3)nn(-c3ccc(F)cc3)c2n1 (centres unmarked) [Compound 566, 4-(3-cyano[1,4'-bipiperidin]-1'-yl)-3-cyclobutyl-1-(4-fluorophenyl)-N-(methanesulfonyl)-1H-pyrazolo[3,4-b]pyridine-6-carboxamide] | 708.8% | 0.4 µM | 365.1% | 0.112 µM
15 | CS(=O)(=O)NC(=O)c1cc(N2CCC(N3CCCC(F)C3)CC2)c2c(C3CCC3)nn(-c3ccc(F)cc3)c2n1 (centres unmarked) [Compound 567, 3-cyclobutyl-4-(3-fluoro[1,4'-bipiperidin]-1'-yl)-1-(4-fluorophenyl)-N-(methanesulfonyl)-1H-pyrazolo[3,4-b]pyridine-6-carboxamide] | 539.8% | 0.0563 µM | 312.2% | 0.139 µM
16 | O=C(NS(=O)(=O)N1CCCCC1)c1cc(N2CCC(N3CCOCC3)CC2)c2c(C3CCC3)nn(-c3ccc(F)cc3)c2n1 [Compound 568, 3-cyclobutyl-1-(4-fluorophenyl)-4-[4-(morpholin-4-yl)piperidin-1-yl]-N-(piperidine-1-sulfonyl)-1H-pyrazolo[3,4-b]pyridine-6-carboxamide] | 461% | 0.0463 µM | 240.65% | 0.0775 µM
17 | O=C(NS(=O)(=O)N1CC(F)C1)c1cc(N2CCC(N3CCOCC3)CC2)c2c(C3CCC3)nn(-c3ccc(F)cc3)c2n1 [Compound 569, 3-cyclobutyl-N-(3-fluoroazetidine-1-sulfonyl)-1-(4-fluorophenyl)-4-[4-(morpholin-4-yl)piperidin-1-yl]-1H-pyrazolo[3,4-b]pyridine-6-carboxamide] | 436.13% | 0.0889 µM | 220.77% | 0.112 µM
18 | CN(C)S(=O)(=O)NC(=O)c1cc(N2CCC(N3CCCC(C(F)(F)F)C3)CC2)c2c(C3CCC3)nn(-c3ccc(F)cc3)c2n1 (centres unmarked) [Compound 571, 3-cyclobutyl-N-(dimethylsulfamoyl)-1-(4-fluorophenyl)-4-[3-(trifluoromethyl)[1,4'-bipiperidin]-1'-yl]-1H-pyrazolo[3,4-b]pyridine-6-carboxamide] | 487.9% | 0.0778 µM | 268.15% | 0.129 µM
19 | COC1CCCN(C2CCN(c3cc(C(=O)NS(=O)(=O)N(C)C)nc4c3c(C3CCC3)nn4-c3ccc(F)cc3)CC2)C1 (centres unmarked) [Compound 572, 3-cyclobutyl-N-(dimethylsulfamoyl)-1-(4-fluorophenyl)-4-(3-methoxy[1,4'-bipiperidin]-1'-yl)-1H-pyrazolo[3,4-b]pyridine-6-carboxamide] | 412.9% | 0.225 µM | 237.55% | 0.295 µM
20 | CN(C)S(=O)(=O)NC(=O)c1cc(N2CCC(N3CCOC(C)(C)C3)CC2)c2c(C3CCC3)nn(-c3ccc(F)cc3)c2n1 [Compound 573, 3-cyclobutyl-4-[4-(2,2-dimethylmorpholin-4-yl)piperidin-1-yl]-N-(dimethylsulfamoyl)-1-(4-fluorophenyl)-1H-pyrazolo[3,4-b]pyridine-6-carboxamide] | 467.57% | 0.0585 µM | 270.53% | 0.104 µM
